Structures can show the parent of a compound that is named as a salt.
System: not given
Assay: not given
Conditions: not given

| SMILES | melting point [°C] |
| --- | --- |
| O=C(c1ccccc1)N1CCN([C@@H]2CN(Cc3ccccc3)C[C@H]2O)CC1 [Example 20, (4-((3,4-trans)-1-benzyl-4-hydroxypyrrolidine-3-yl)piperazin-1-yl)(phenyl)methanone] | 130 to 134 |

Target: T1, Sigma-1 receptor (Cavia porcellus, UniProt Q60492)
T1 construct: guinea pig brains were homogenized; from tissue; host or cells: guinea pig brain membranes
Assay: Sigma-1 receptor binding assay, [3H](+)-pentazocine displacement in brain membranes
Conditions: 2.5 h, compound at 10^−7 M; [3H](+)-pentazocine 0.5 nM; guinea pig brain membranes; non-specific binding defined by 1 μM haloperidol; read-out: Percent Replacement Sigma-1 receptor [10^−7 M]
Procedure: Some representative compounds of the invention were tested for their activity as sigma (sigma-1) inhibitors. The following protocol was followed:
Brain membrane preparation and binding assays for the σ1-receptor were performed as described (DeHaven-Hudkins et al., 1992, Eur. J. Pharmacol. 227, 371-378.) with some modifications. In brief, guinea pig brains were homogenized in 10 vols. (w/v) of Tris-HCl 50 mM 0.32 M sucrose, pH 7.4, with a Kinematica Polytron PT 3000 at 15000 r.p.m. for 30 s. The homogenate was centrifuged at 1000g for 10 min at 4° C. and the supematants collected and centrifuged again at 48000 g for 15 min at 4° C. The pellet was resuspended in 10 volumes of Tris-HCl buffer (50 mM, pH 7.4), incubated at 37° C. for 30 min, and centrifuged at 48000 g for 20 min at 4° C. Following this, the pellet was resuspended in fresh Tris-HCl buffer (50 mM, pH 7.4) and stored on ice until use.
Each assay tube contained 10 μL of [^3H](+)-pentazocine (final concentration of 0.5 nM), 900 μL of the tissue suspension to a final assay volume of 1 mL and a final tissue concentration of approximately 30 mg tissue net weight/mL. Non-specific binding was defined by addition of a final concentration of 1 μM haloperidol. All tubes were incubated at 37° C. for 150 min before termination of the reaction by rapid filtration over Schleicher & Schuell GF 3362 glass fibre filters [previously soaked in a solution of 0.5% polyethylenimine for at least 1 h]. Filters were then washed with four times with 4 mL of cold Tris-HCl buffer (50 mM, pH 7.4). Following addition of scintillation cocktail, the samples were allowed to equilibrate overnight. The amount of bound radioactivity was determined by liquid scintillation spectrometry using a Wallac Winspectral 1414 liquid scintillation counter. Protein concentrations were determined by the method of Lowry et al. (1951; J. Biol. Chem, 193, 265.).

T1 sequence (Q60492 whole entry): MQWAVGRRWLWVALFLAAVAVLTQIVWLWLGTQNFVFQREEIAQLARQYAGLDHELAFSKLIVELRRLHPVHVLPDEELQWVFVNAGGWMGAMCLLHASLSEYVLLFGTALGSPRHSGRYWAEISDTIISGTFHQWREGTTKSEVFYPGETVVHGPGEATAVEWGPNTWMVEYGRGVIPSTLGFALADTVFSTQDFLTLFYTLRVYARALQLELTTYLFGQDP

| SMILES | inhibition at 0.1 µM [%] |
| --- | --- |
| CCCCCCCCN[C@@H]1CN(Cc2ccccc2)C[C@H]1O [Example 31, (3R,4R)-1-benzyl-4-(octylamino)pyrrolidin-3-ol] | 89.9 |
| O[C@@H]1CN(Cc2ccccc2)C[C@H]1N1CCN(c2ccc(Cl)c(Cl)c2)CC1 [Example 88, (3,4-trans)-1-benzyl-4-(4-(3,4-dichlorophenyl)piperazin-1-yl)pyrrolidin-3-ol] | 93.1 |
| O[C@@H]1CN(Cc2ccccc2)C[C@H]1N1CCN(c2ccccc2Cl)CC1 [Example 85] | 107 |
| CC(=O)O[C@@H]1CN(Cc2ccccc2)C[C@H]1N1CCN(S(=O)(=O)c2cccc3ccccc23)CC1 [Example 60, (3,4-trans)-1-benzyl-4-(4-(naphthalen-1-ylsulfonyl)piperazin-1-yl)pyrrolidin-3-yl acetate dihydrochloride] | 40.8 |
| CC(=O)O[C@@H]1CN(Cc2ccccc2)C[C@H]1N1CCN(C(=O)OC(C)(C)C)CC1 [Example 24] | 73 |
| Cc1ccc(F)cc1S(=O)(=O)N1CCN([C@@H]2CN(Cc3ccccc3)C[C@H]2O)CC1 [Example 70, (3,4-trans)-1-benzyl-4-(4-(5-fluoro-2-methylphenylsulfonyl)piperazin-1-yl)pyrrolidin-3-ol dihydrochioride] | 81.4 |
| O[C@@H]1CN(Cc2ccccc2)C[C@H]1N1CCc2cccc3c2C1CC3 (stereo partly drawn) [Example 11, (3,4-trans)-1-benzyl-4-(2,3,8,8a-tetrahydrocyclopenta[ij]isoquinolin-1(7H)-yl)pyrrolidine-3-ol] | 81.1 |
| Cc1ccc(S(=O)(=O)N2CCN([C@@H]3CN(Cc4ccccc4)C[C@H]3O)CC2)cc1 [Example 57, (3,4-trans)-1-benzyl-4-(4-tosylpiperazin-1-yl)pyrrolidin-3-ol dihydrochloride] | 16.8 |
| O=S(=O)(c1ccccc1)N1CCN([C@@H]2CN(Cc3ccccc3)C[C@H]2O)CC1 [Example 73, (3,4-trans)-1-benzyl-4-(4-(phenylsulfonyl)piperazin-1-yl)pyrrolidin-3-ol] | 84 |
| COc1ccc(N[C@@H]2CN(Cc3ccccc3)C[C@H]2O)cc1 [Example 37, (3R,4R)-1-benzyl-4-(4-methoxyphenylamino)pyrrolidin-3-ol] | 65.4 |
| O=S(=O)(c1ccccc1F)N1CCN([C@H]2CN(Cc3ccccc3)C[C@@H]2O)CC1 [Example 77, (3S,4S)-1-benzyl-4-(4-(2-fluorophenylsulfonyl)piperazin-1-yl)pyrrolidin-3-ol dihydrochloride] | 46.1 |
| COc1ccnc(N2CCN([C@@H]3CN(Cc4ccccc4)C[C@H]3O)CC2)n1 [Example 10, (3,4-trans)-1-benzyl-4-(4-(4-methoxypyrimidin-2-yl)piperazin-1-yl)pyrrolidine-3-ol] | 77.8 |
| CC(=O)O[C@@H]1CN(Cc2ccccc2)C[C@H]1N1CCN(S(=O)(=O)c2ccc(C)cc2)CC1 [Example 56, (3,4-trans)-1-benzyl-4-(4-tosylpiperazin-1-yl)pyrrolidin-3-yl acetate dihydrochloride] | 38 |
| O[C@@H]1CN(Cc2ccccc2)C[C@H]1N1CCc2ccccc2C1 [Example 1, (3,4-trans)-1-benzyl-4-(3,4-dihydroisoquinolin-2(1H)-yl)pyrrolidine-3-ol] | 84.9 |
| CC(=O)O[C@@H]1CN(Cc2ccccc2)C[C@H]1N1CCN(S(=O)(=O)c2ccccc2Cl)CC1 [Example 52, (3R,4R)-1-benzyl-4(4-(2-chlorophenylsulfonyl)piperazin-1-yl)pyrrolidin-3-yl acetate] | 92.4 |
| COC(=O)c1ccc(N[C@@H]2CN(Cc3ccccc3)C[C@H]2O)cc1 [Example 38, Methyl 4-((3,4-trans)-1-benzyl-4-hydroxypyrrolidin-3-ylamino)benzoate] | 55.9 |

| SMILES | inhibition at 0.1 µM [%] |
| --- | --- |
| O[C@@H]1CN(Cc2ccccc2)C[C@H]1NCCCN1CCc2ccccc2C1 [Example 9, (3,4-trans)-1-benzyl-4-(3-(3,4-dihydroisoquinolin-2(1H)-yl)propylamino)pyrrolidine-3-ol] | 38.6 |
| O=S(=O)(c1ccccc1Br)N1CCN([C@@H]2CN(Cc3ccccc3)C[C@H]2O)CC1 [Example 67, (3,4-trans)-1-benzyl-4-(4-(2-bromophenylsulfonyl)piperazin-1-yl)pyrrolidin-3-ol dihydrochloride] | 86.7 |
| C[C@@H](c1ccccc1)N1C[C@@H](O)[C@H](N2CCc3ccccc3C2)C1 [Example 16, (3,4-trans)-4-(3,4-dihydroisoquinolin-2(1H)-yl)-1((S)-1-phenylethyl)pyrrolidine-3-ol] | 49.9 |
| O[C@H]1CN(Cc2ccccc2)C[C@@H]1N1CCN(c2ccccc2Cl)CC1 [Example 86, (3S,4S)-1-benzyl-4-(4-(2-chlorophenyl)piperazin-1-yl)pyrrolidin-3-ol] | 86.2 |
| O[C@@H]1CN(Cc2ccccc2)C[C@H]1N1CCN(Cc2ccc(Cl)c(Cl)c2)CC1 [Example 79, (3,4-trans)-1-benzyl-4-(4-(3,4-dichlorobenzyl)piperazin-1-yl)pyrrolidine-3-ol] | 88.4 |
| O[C@@H]1CN(Cc2ccccc2)C[C@H]1N1CCC(CN2CCc3ccccc3C2)CC1 [Example 5, (3,4-trans)-1-benzyl-4-(4-((3,4-dihydrolsoquinolin-2(1H)-yl)methyl)piperidin-1-yl)pyrrolidine-3-ol] | 63.5 |
| O=S(=O)(c1ccccc1F)N1CCN([C@@H]2CN(Cc3ccccc3)C[C@H]2O)CC1 [Example 76, (3,4-trans)-1-benzyl-4-(4-(2-fluorophenylsulfonyl)piperazin-1-yl)pyrrolidin-3-ol dihydrochloride] | 85 |
| CC(=O)O[C@@H]1CN(Cc2ccccc2)C[C@H]1N1CCN(S(=O)(=O)c2ccccc2-c2ccccc2)CC1 (relative stereo) [Example 27, trans 1-Benzyl-4-(4-(2-phenyl-phenylsulfonyl)piperazin-1-yl)pyrrolidin-3-yl acetate] | 24.7 |
| O[C@@H]1CN(Cc2ccccc2)C[C@H]1N1CCN(c2ccc(F)cc2)CC1 [Example 83, (3,4-trans)-1-benzyl-4-(4-(4-fluorophenyl)piperazin-1-yl)pyrrolidin-3-ol] | 69.7 |
| CC(=O)O[C@@H]1CN(Cc2ccccc2)C[C@H]1N1CCN(S(=O)(=O)c2ccccc2F)CC1 [Example 75, (3,4-trans)-1-benzyl-4-(4-(2-fluorophenylsulfonyl)piperazin-1-yl)pyrrolidin-3-yl acetate dihydrochloride] | 95.5 |
| CC(C)(C)OC(=O)N1CCN([C@@H]2CN(Cc3ccccc3)C[C@H]2O)CC1 [Example 12, tert-butyl-4-((3,4-trans)-1-benzyl-4-hydroxypyrrolidine-3-yl)piperazine-1-carboxylate] | 96.5 |
| O[C@@H]1CN(Cc2ccccc2)C[C@H]1Nc1ccccc1 [Example 29, (3,4-trans)-1-benzyl-4-(phenylamino)pyrrolidin-3-ol] | 39.3 |
| O[C@@H]1CN(Cc2ccccc2)C[C@H]1N1CCN(Cc2c(F)cccc2Cl)CC1 [Example 78, (3,4-trans)-1-benzyl-4-(4-(2-chloro-6-fluorobenzyl)piperazin-1-yl)pyrrolidine-3-ol] | 81.9 |
| O=S(=O)(c1cccc2ccccc12)N1CCN([C@@H]2CN(Cc3ccccc3)C[C@H]2O)CC1 [Example 61, (3,4-trans)-1-benzyl-4-(4-(naphthalen-1-ylsulfonyl)piperazin-1-yl)pyrrolidin-3-ol dihydrochloride] | 30.1 |
| COc1ccc(CN[C@@H]2CN(Cc3ccccc3)C[C@H]2O)cc1 [Example 32, (3,4-trans)-1-benzyl-4-(4-methoxybenzylamino)pyrrolidin-3-ol] | 59.1 |

Same assay, conditions: compound at 10^−7 M; [3H](+)-pentazocine 0.5 nM; guinea pig brain membranes; non-specific binding defined by 1 μM haloperidol

| SMILES | Percent Replacement Sigma-1 receptor [10^−7 M] [%] |
| --- | --- |
| O[C@@H]1CN(Cc2ccccc2)C[C@H]1N1CCN(c2ccccc2Cl)CC1 [Example 84, (3,4-trans)-1-benzyl-4-(4-(2-chlorophenyl)piperazin-1-yl)pyrrolidin-3-ol] | 94.6 |
| O=S(=O)(c1ccccc1F)N1CCN([C@@H]2CN(Cc3ccccc3)C[C@H]2O)CC1 [Example 48, (3R,4R)-1-benzyl-4-(4-(2-fluorophenylsulfonyl)piperazin-1-yl)pyrrolidin-3-ol] | 96.5 |

— US20100168093A1, “SUBSTITUTED 3-AMINO-4 -HYDROXY PYRROLIDINES COMPOUNDS, THEIR PREPARATION AND USE AS MEDICAMENTS” (priority 2006, published 2010)
